Data reported in ChEMBL document CHEMBL1133195, “Structure-activity relationships study at the 3'-N position of paclitaxel. Part 2: synthesis and biological evaluation of 3'-N-thiourea- and 3'-N-thiocarbamate-bearing paclitaxel analogues” (Bioorg Med Chem Lett, 2000).

Experiments:
[1] = Ratio fo the (IC50-R) compound relative to (IC50-S) paclitaxel sensitive HCT116 human colon cancer cell line; format: functional, HCT-116
[2] = Ratio relative to paclitaxel (EC0.01) was evaluated in a tubulin polymerization assay; format: functional
[3] = Cytotoxicity ratio was determined by IC50 to that of IC50 of paclitaxel; format: functional
HCT-116 = experiment: In vitro cytotoxicity against human colon cancer cell lines (HCT116); format: functional, cell-based
Mus musculus [4] = experiment: In vivo anticancer activity against murine M 109 lung carcinoma after intraperitoneal administration at a 60 mg/kg/inj concentration; Range 145-218; format: functional
Mus musculus [5] = experiment: In vivo anticancer activity against murine M 109 lung carcinoma after intraperitoneal administration at a 40 mg/kg/inj concentration; format: functional
Mus musculus [6] = experiment: In vivo anticancer activity against murine M 109 lung carcinoma after intraperitoneal administration at a 32 mg/kg/inj concentration; format: functional
Mus musculus [7] = experiment: In vivo anticancer activity against murine M 109 lung carcinoma after intraperitoneal administration at a 50 mg/kg/inj concentration; format: functional
Mus musculus [8] = experiment: In vivo anticancer activity against murine M 109 lung carcinoma after intraperitoneal administration at a 1.25 mg/kg/inj concentration; format: functional

SMILES	Ratio [1]	Ratio [2]	Ratio [3]	IC50 (HCT-116)	T/C (Mus musculus [4])	T/C (Mus musculus [5])	T/C (Mus musculus [6])	T/C (Mus musculus [7])	T/C (Mus musculus [8])
CC(=O)O[C@H]1C(=O)[C@]2(C)[C@@H](O)CC3OC[C@@]3(OC(C)=O)[C@H]2[C@H](OC(=O)c2ccccc2)C2(O)C[C@H](OC(=O)[C@H](O)[C@@H](/N=C(\S)NC(C)(C)C)c3ccco3)C(C)=C1C2(C)C (stereo partly specified)	40	1	4.9	11.3 nM					
CCCC/N=C(\S)N[C@@H](c1ccco1)[C@@H](O)C(=O)O[C@H]1CC2(O)[C@@H](OC(=O)c3ccccc3)[C@H]3[C@](C)(C(=O)[C@H](OC(C)=O)C(=C1C)C2(C)C)[C@@H](O)CC1OC[C@]13OC(C)=O (stereo partly specified)	252	1	4.6	10.5 nM					
CCCC/N=C(\S)N[C@@H](c1ccccc1)[C@@H](O)C(=O)O[C@H]1CC2(O)[C@@H](OC(=O)c3ccccc3)[C@H]3[C@](C)(C(=O)[C@H](OC(C)=O)C(=C1C)C2(C)C)[C@@H](O)CC1OC[C@]13OC(C)=O (stereo partly specified)	64	18	21.8	50.2 nM					
CC(=O)O[C@H]1C(=O)[C@]2(C)[C@@H](O)CC3OC[C@@]3(OC(C)=O)[C@H]2[C@H](OC(=O)c2ccccc2)C2(O)C[C@H](OC(=O)[C@H](O)[C@@H](NC(=O)SC(C)C)c3ccco3)C(C)=C1C2(C)C (stereo partly specified)	1.2	0.2	14.7	32.5 nM					
CC(=O)O[C@H]1C(=O)[C@@]2(C)[C@H]([C@H](OC(=O)c3ccccc3)[C@]3(O)C[C@H](OC(=O)[C@H](O)[C@@H](NC(=O)c4ccccc4)c4ccccc4)C(C)=C1C3(C)C)[C@]1(OC(C)=O)CO[C@@H]1C[C@@H]2O [PACLITAXEL]					145				
CC(=O)O[C@H]1C(=O)[C@]2(C)[C@@H](O)CC3OC[C@@]3(OC(C)=O)[C@H]2[C@H](OC(=O)c2ccccc2)C2(O)C[C@H](OC(=O)[C@H](O)[C@@H](NC(=O)SC(C)(C)C)c3ccccc3)C(C)=C1C2(C)C (stereo partly specified)	4.7	0.3	0.3	0.9 nM					
CC(=O)O[C@@]12COC1C[C@H](O)[C@@]1(C)C(=O)[C@H](O)C3=C(C)[C@@H](OC(=O)C(O)[C@@H](NC(=O)NC(C)(C)C)c4ccccc4)CC(O)([C@@H](OC(=O)c4ccccc4)[C@@H]12)C3(C)C (stereo partly specified)	46.8	0.72	1	4 nM					
CC(=O)O[C@H]1C(=O)[C@]2(C)[C@@H](O)CC3OC[C@@]3(OC(C)=O)[C@H]2[C@H](OC(=O)c2ccccc2)C2(O)C[C@H](OC(=O)[C@H](O)[C@@H](/N=C(\S)NCc3ccccc3)c3ccccc3)C(C)=C1C2(C)C (stereo partly specified)		12	>40	> 87 nM					
CCCCSC(=O)N[C@@H](c1ccco1)[C@@H](O)C(=O)O[C@H]1CC2(O)[C@@H](OC(=O)c3ccccc3)[C@H]3[C@](C)(C(=O)[C@H](OC(C)=O)C(=C1C)C2(C)C)[C@@H](O)CC1OC[C@]13OC(C)=O (stereo partly specified)	21.3	0.2	0.17	0.3 nM		139			
CC(=O)O[C@H]1C(=O)[C@]2(C)[C@@H](O)CC3OC[C@@]3(OC(C)=O)[C@H]2[C@H](OC(=O)c2ccccc2)C2(O)C[C@H](OC(=O)[C@H](O)[C@@H](NC(=O)OC(C)(C)C)c3ccccc3)C(C)=C1C2(C)C (stereo partly specified)	12	0.66	0.6	2.4 nM			177		
CC(=O)O[C@H]1C(=O)[C@]2(C)[C@@H](O)CC3OC[C@@]3(OC(C)=O)[C@H]2[C@H](OC(=O)c2ccccc2)C2(O)C[C@H](OC(=O)[C@H](O)[C@@H](NC(=O)SCC(C)C)c3ccco3)C(C)=C1C2(C)C (stereo partly specified)	7.7	0.2	0.28	0.7 nM				145	
CC(=O)O[C@H]1C(=O)[C@]2(C)[C@@H](O)CC3OC[C@@]3(OC(C)=O)[C@H]2[C@H](OC(=O)c2ccccc2)C2(O)C[C@H](OC(=O)[C@H](O)[C@@H](NC(=O)SC(C)(C)C)c3ccco3)C(C)=C1C2(C)C (stereo partly specified)	2.2	0.1	0.3	0.9 nM					134
CCCCSC(=O)N[C@@H](c1ccccc1)[C@@H](O)C(=O)O[C@H]1CC2(O)[C@@H](OC(=O)c3ccccc3)[C@H]3[C@](C)(C(=O)[C@H](OC(C)=O)C(=C1C)C2(C)C)[C@@H](O)CC1OC[C@]13OC(C)=O (stereo partly specified)	29	0.6	0.88	5.8 nM					
CC(=O)O[C@H]1C(=O)[C@]2(C)[C@@H](O)CC3OC[C@@]3(OC(C)=O)[C@H]2[C@H](OC(=O)c2ccccc2)C2(O)C[C@H](OC(=O)[C@H](O)[C@@H](/N=C(\S)NC(C)(C)C)c3ccccc3)C(C)=C1C2(C)C (stereo partly specified)	31	19	~50	96.7 nM					
